From patent publication US9376380B2 (University of Pittsburgh—Of the Commonwealth System of …, priority 2011, dated 2016)
pKi: −log10 of the molar value. Read-outs that look alike come from different tables or passages of the source.

Key:
CB1 receptor = biological target: T1, CB1 receptor (Homo sapiens, UniProt P21554); assay: [3H]CP-55,940 radioligand competition binding, CB1
T1 construct: host or cells: cell membrane preparations
Method: (§1) Briefly, the bioassay is carried out using the Perkin Elmer 96-well Top Counter. […] The procedure is as follows.
(§2) In competition binding experiments, the tested compound dilutions are carried out in duplicate in TME buffer (25 mM Tris, 5 mM MgCl2, 1 mM EDTA) containing 0.1% (w/v) fatty acid free bovine serum albumin (BSA), pH 7.4. […] TME buffer and cell membrane preparations expressing CB receptors (5 μg per well) are added to a final volume of 200 μL. […] After the binding suspensions are incubated at 30° C. for 1 hr, the reaction is terminated by rapid filtration through microfiltration plates (Unifilter GF/B filterplate, PerkinElmer), followed by 5 washes with ice cold TME buffer containing 0.1% BSA on a Packard Filtermate Harvester (PerkinElmer). The plates are then dried overnight and 30 μl MicroScint 0 scintillation cocktail is added to each well of the dried filter plates. The bound radioactivity is then counted using a Perkin Elmer 96-well TopCounter. […] This assay is used for determination of the binding affinity parameters (Ki) of ligand-receptor interactions for the CB receptor.

CB2 receptor = CB2 receptor (Homo sapiens, UniProt P34972); assay: [3H]CP-55,940 radioligand competition binding, CB2; design: host or cells: cell membrane preparations; settings: for SI: selectivity index for CB2: Ki(CB1)/Ki(CB2) ratio
Method: as §1, §2

[1] = [3H]CP-55,940 displacement, read-out: Ki (CB1)
[2] = [3H]CP-55,940 displacement, read-out: Ki (CB2)

CB2 receptor, sequence (P34972 whole entry): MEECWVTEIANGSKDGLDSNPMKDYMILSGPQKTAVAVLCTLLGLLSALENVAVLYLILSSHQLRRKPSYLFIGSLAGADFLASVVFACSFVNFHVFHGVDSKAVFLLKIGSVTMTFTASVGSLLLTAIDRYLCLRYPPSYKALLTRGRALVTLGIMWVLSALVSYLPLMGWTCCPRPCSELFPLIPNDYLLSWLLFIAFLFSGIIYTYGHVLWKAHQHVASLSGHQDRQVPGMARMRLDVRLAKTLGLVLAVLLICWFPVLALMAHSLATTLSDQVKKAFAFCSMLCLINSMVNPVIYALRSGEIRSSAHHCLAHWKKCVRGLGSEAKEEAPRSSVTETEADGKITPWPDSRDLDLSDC
T1 sequence (P21554 whole entry): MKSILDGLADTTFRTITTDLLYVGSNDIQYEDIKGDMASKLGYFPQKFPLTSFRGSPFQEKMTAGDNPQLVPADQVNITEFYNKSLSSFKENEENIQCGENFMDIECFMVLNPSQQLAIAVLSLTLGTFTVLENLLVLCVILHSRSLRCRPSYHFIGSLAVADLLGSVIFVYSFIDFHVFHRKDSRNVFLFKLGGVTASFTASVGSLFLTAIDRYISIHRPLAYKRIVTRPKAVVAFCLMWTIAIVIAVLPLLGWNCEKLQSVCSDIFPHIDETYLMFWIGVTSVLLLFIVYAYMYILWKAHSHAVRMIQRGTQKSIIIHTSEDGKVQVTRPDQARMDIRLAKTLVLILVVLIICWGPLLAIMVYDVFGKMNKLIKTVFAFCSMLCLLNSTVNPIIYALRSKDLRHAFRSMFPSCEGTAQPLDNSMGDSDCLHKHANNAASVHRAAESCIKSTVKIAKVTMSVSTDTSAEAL

SMILES | pKi (CB1 receptor; [1]) | pKi (CB2 receptor; [2]) | SI: selectivity index for CB2 (CB2 receptor) | pKi (CB1 receptor) | pKi (CB2 receptor)
Cc1ccc(C(NC(=O)Cc2ccccc2)NC(=O)Cc2ccccc2)cc1 [Compound 8, N,N′-(p-tolylmethylene)bis(2-phenylacetamide)] | 6.96 | 6.31 | – | – | –
O=C(Cc1ccccc1)NC(Cc1ccccc1)NC(=O)Cc1ccccc1 [Compound 44, N,N′-(2-Phenylethane-1,1-diyl)bis(2-phenylacetamide)] | < 4.70 | – | – | – | –
O=C(Cc1ccccc1)NC(CCc1ccccc1)NC(=O)Cc1ccccc1 [Compound 45, N,N′-(3-Phenylpropane-1,1-diyl)bis(2-phenylacetamide)] | < 4.70 | 5.03 | – | – | –
O=C(Cc1ccccc1)NC(/C=C/c1ccccc1)NC(=O)Cc1ccccc1 [Compound 46, (E)-N,N′-(3-Phenylprop-2-ene-1,1-diyl)bis(2-phenylacetamide)] | < 4.70 | – | – | – | –
CCN(CC)c1ccc(C(NC(=O)C=Cc2ccccc2)NC(=O)C=Cc2ccccc2)cc1 (stereo not drawn) [Compound 48, N,N′-((4-(Diethylamino)phenyl)methylene)bis(3-phenylacrylamide)] | < 4.70 | 6.78 | >119 | – | –
CCN(CC)c1ccc(C(NC(=O)C(C)C)NC(=O)C(C)C)cc1 [Compound 50, N,N′-((4-(diethylamino)phenyl)methylene)bis(2-methylpropanamide)] | < 4.70 | 5.58 | – | – | –
CCN(CC)c1ccc(C(NC(=O)C(C)(C)C)NC(=O)C(C)(C)C)cc1 [Compound 51, N,N′-((4-(diethylamino)phenyl)methylene)bis(2,2-dimethylpropanamide)] | < 4.70 | 5.45 | – | – | –
CCN(CC)c1ccc(CN(C23CC4CC(CC(C4)C2)C3)S(=O)(=O)c2ccccc2)cc1 [Compound 56, N-((3s,5s,7s)-Adamantan-1-yl)-N-(4-(diethylamino)benzyl)benzenesulfonamide] | – | – | – | 4.96 | 7.08
CCN(CC)c1ccc(CN(C23CC4CC(CC(C4)C2)C3)S(=O)(=O)c2ccc(F)cc2)cc1 [Compound 57, N-((3s,5s,7s)-Adamantan-1-yl)-N-(4-(diethylamino)benzyl)-4-fluorobenzenesulfonamide] | 5.37 | – | – | – | 7.60
CCN(CC)c1ccc(CN(C23CC4CC(CC(C4)C2)C3)S(=O)(=O)c2ccc(Cl)cc2)cc1 [Compound 58, N-((3s,5s,7s)-Adamantan-1-yl)-4-chloro-N-(4-(diethylamino)benzyl)benzenesulfonamide] | 5.69 | 6.76 | 11 | – | –
CCN(CC)c1ccc(CN(C23CC4CC(CC(C4)C2)C3)S(=O)(=O)c2ccc(C)cc2)cc1 [Compound 60, N-((3s,5s,7s)-Adamantan-1-yl)-N-(4-(diethylamino)benzyl)-4-methylbenzenesulfonamide] | < 4.70 | – | – | – | –
CCN(CC)c1ccc(CN(C(=O)C2CCCCC2)C23CC4CC(CC(C4)C2)C3)cc1 [Compound 63, N-((3s,5s,7s)-Adamantan-1-yl)-N-(4-(diethylamino)benzyl)cyclohexanecarboxamide] | < 4.70 | – | >571 | – | 7.46
CCN(CC)c1ccc(CN(C(=O)Cc2ccc(Cl)cc2)C23CC4CC(CC(C4)C2)C3)cc1 [Compound 65, N-((3s,5s,7s)-Adamantan-1-yl)-2-(4-chlorophenyl)-N-(4-(diethylamino)benzyl)acetamide] | < 4.70 | – | – | – | –
CCN(CC)c1ccc(CN(C(=O)Cc2ccccc2)C23CC4CC(CC(C4)C2)C3)cc1 [Compound 66, N-((3s,5s,7s)-Adamantan-1-yl)-N-(4-(diethylamino)benzyl)-2-phenylacetamide] | < 4.70 | 7.22 | >333 | – | –
CCCCCCCN(Cc1ccc(N(CC)CC)cc1)S(=O)(=O)c1ccc(F)cc1 [Compound 72, N-(4-(Diethylamino)benzyl)-4-fluoro-N-heptylbenzenesulfonamide] | – | 5.96 | – | – | –
CCCCCCCN(Cc1ccc(N(CC)CC)cc1)S(=O)(=O)c1ccc(Cl)cc1 [Compound 73, 4-Chloro-N-(4-(diethylamino)benzyl)-N-heptylbenzenesulfonamide] | – | 5.17 | – | – | –
CCCCCCCN(Cc1ccc(N(CC)CC)cc1)S(=O)(=O)Cc1ccccc1 [Compound 74, N-(4-(Diethylamino)benzyl)-N-heptyl-1-phenylmethanesulfonamide] | – | 6.56 | – | – | –
CCCCCCCN(Cc1ccc(N(CC)CC)cc1)S(=O)(=O)CCCC [Compound 75, N-(4-(Diethylamino)benzyl)-N-heptylbutane-1-sulfonamide] | – | 6.17 | – | – | –
CCCCCCCN(Cc1ccc(N(CC)CC)cc1)C(=O)Cc1ccccc1 [Compound 76, N-(4-(Diethylamino)benzyl)-N-heptyl-2-phenylacetamide] | – | 5.88 | – | – | –
CCCCCCCN(Cc1ccc(N(CC)CC)cc1)C(=O)Cc1ccc(Cl)cc1 [Compound 77, 2-(4-Chlorophenyl)-N-(4-(diethylamino)benzyl)-N-heptylacetamide] | – | 6.16 | – | – | –

SMILES | pKi (CB1 receptor; [1]) | pKi (CB2 receptor; [2]) | SI: selectivity index for CB2 (CB2 receptor) | pKi (CB1 receptor) | pKi (CB2 receptor)
CCCCCCCN(Cc1ccc(N(CC)CC)cc1)C(=O)c1ccc(N(C)C)cc1 [Compound 78, N-(4-(Diethylamino)benzyl)-4-(dimethylamino)-N-heptylbenzamide] | – | 5.89 | – | – | –
CCCCCCCN(Cc1ccc(N(CC)CC)cc1)C(=O)C1CCCCC1 [Compound 79, N-(4-(Diethylamino)benzyl)-N-heptylcyclohexanecarboxamide] | – | 6.67 | – | – | –
CCCCCCCC(=O)N(CCCCCCC)Cc1ccc(N(CC)CC)cc1 [Compound 80, N-(4-(Diethylamino)benzyl)-N-heptyloctanamide] | – | < 4.70 | – | – | –
CCN(CC)c1ccc(CN(c2ccc(Cl)cc2)S(=O)(=O)c2ccccc2)cc1 [Compound 81, N-(4-Chlorophenyl)-N-(4-(diethylamino)benzyl)benzenesulfonamide] | 5.75 | – | – | – | –
CCN(CC)c1ccc(CN(c2ccc(Cl)cc2)S(=O)(=O)c2ccc(F)cc2)cc1 [Compound 82, N-(4-Chlorophenyl)-N-(4-(diethylamino)benzyl)-4-fluorobenzenesulfonamide] | 5.95 | 7.14 | 15 | – | –
CCN(CC)c1ccc(CN(c2ccc(Cl)cc2)S(=O)(=O)c2ccc(Cl)cc2)cc1 [Compound 83, 4-Chloro-N-(4-chlorophenyl)-N-(4-(diethylamino)benzyl)benzenesulfonamide] | 5.18 | 7.44 | 183 | – | –
CCN(CC)c1ccc(CN(c2ccc(Cl)cc2)S(=O)(=O)c2ccc(C)cc2)cc1 [Compound 85, N-(4-Chlorophenyl)-N-(4-(diethylamino)benzyl)-4-methylbenzenesulfonamide] | 6.86 | 7.43 | 3.7 | – | –
CCN(CC)c1ccc(CN(c2ccc(Cl)cc2)S(=O)(=O)c2cccc(C)c2)cc1 [Compound 86, N-(4-Chlorophenyl)-N-(4-(diethylamino)benzyl)-3-methylbenzenesulfonamide] | 6.06 | 8.55 | – | – | –
CCN(CC)c1ccc(CN(c2ccc(Cl)cc2)S(=O)(=O)c2ccc(C(C)C)cc2)cc1 [Compound 87, N-(4-Chlorophenyl)-N-(4-(diethylamino)benzyl)-4-isopropylbenzenesulfonamide] | – | 6.65 | – | – | –
CCN(CC)c1ccc(CN(C(=O)Cc2ccc(Cl)cc2)c2ccc(Cl)cc2)cc1 [Compound 88, N,2-bis(4-Chlorophenyl)-N-(4-(diethylamino)benzyl)acetamide] | < 4.70 | 6.87 | 147 | – | –
CCN(CC)c1ccc(CN(C(=O)C2CCCCC2)c2ccc(Cl)cc2)cc1 [Compound 89, N-(4-Chlorophenyl)-N-(4-(diethylamino)benzyl)cyclohexanecarboxamide] | < 4.70 | 6.79 | 121 | – | –
CCN(CC)c1ccc(CN(c2ccc(C)cc2)S(=O)(=O)c2ccccc2)cc1 [Compound 90, N-(4-(Diethylamino)benzyl)-N-(p-tolyl)benzenesulfonamide] | 6.29 | 8.47 | 151 | – | –
CCN(CC)c1ccc(CN(c2ccc(C)cc2)S(=O)(=O)c2ccc(F)cc2)cc1 [Compound 91, N-(4-(Diethylamino)benzyl)-4-fluoro-N-(p-tolyl)benzenesulfonamide] | 6.07 | 8.25 | 153 | – | –
CCN(CC)c1ccc(CN(c2ccc(C)cc2)S(=O)(=O)c2ccc(Cl)cc2)cc1 [Compound 92, 4-Chloro-N-(4-(diethylamino)benzyl)-N-(p-tolyl)benzenesulfonamide] | 6.39 | 8.52 | – | – | –
CCN(CC)c1ccc(CN(c2ccc(C)cc2)S(=O)(=O)c2ccc(C)cc2)cc1 [Compound 94, N-(4-(Diethylamino)benzyl)-4-methyl-N-(p-tolyl)benzenesulfonamide] | – | 8.27 | – | – | –
CCN(CC)c1ccc(CN(c2ccc(C)cc2)S(=O)(=O)c2cccc(C)c2)cc1 [Compound 95, N-(4-(Diethylamino)benzyl)-3-methyl-N-(p-tolyl)benzenesulfonamide] | 6.66 | 8.24 | 37 | – | –
CCN(CC)c1ccc(CN(c2ccc(C)cc2)S(=O)(=O)c2ccc(C(C)C)cc2)cc1 [Compound 96, N-(4-(Diethylamino)benzyl)-4-isopropyl-N-(p-tolyl)benzenesulfonamide] | 5.47 | 8.37 | 782 | – | –
CCN(CC)c1ccc(CN(C(=O)Cc2ccccc2)c2ccc(C)cc2)cc1 [Compound 97, N-(4-(Diethylamino)benzyl)-2-phenyl-N-(p-tolyl)acetamide] | < 4.70 | 7.14 | >277 | – | –
CCN(CC)c1ccc(CN(C(=O)Cc2ccc(Cl)cc2)c2ccc(C)cc2)cc1 [Compound 98, 2-(4-Chlorophenyl)-N-(4-(diethylamino)benzyl)-N-(p-tolyl)acetamide] | 5.49 | 6.97 | 29 | – | –
CCN(CC)c1ccc(CNc2ccc(Cl)cc2)cc1 [G, 4-(((4-Chlorophenyl)amino)methyl)-N,N′-diethylaniline] | – | 5.17 | – | – | –
